“And” between values parts separate entries of the source, which are not always exact repeats. Equal entries are not always repeated. Blank lines part the entries; values can stand above or below the molecule they belong to.
Experiments:
[1] = system: HEK293T cells (mock); assay: Glo-sensor cAMP assay, mock (negative control); format: cell-based
[2] = target: T1, α1AAR (Homo sapiens, UniProt P35348); assay: Glo-sensor cAMP signaling assay with engineered Gsq protein in HEK293T cells; settings: HEK-293T
T1 sequence (P35348 1-466): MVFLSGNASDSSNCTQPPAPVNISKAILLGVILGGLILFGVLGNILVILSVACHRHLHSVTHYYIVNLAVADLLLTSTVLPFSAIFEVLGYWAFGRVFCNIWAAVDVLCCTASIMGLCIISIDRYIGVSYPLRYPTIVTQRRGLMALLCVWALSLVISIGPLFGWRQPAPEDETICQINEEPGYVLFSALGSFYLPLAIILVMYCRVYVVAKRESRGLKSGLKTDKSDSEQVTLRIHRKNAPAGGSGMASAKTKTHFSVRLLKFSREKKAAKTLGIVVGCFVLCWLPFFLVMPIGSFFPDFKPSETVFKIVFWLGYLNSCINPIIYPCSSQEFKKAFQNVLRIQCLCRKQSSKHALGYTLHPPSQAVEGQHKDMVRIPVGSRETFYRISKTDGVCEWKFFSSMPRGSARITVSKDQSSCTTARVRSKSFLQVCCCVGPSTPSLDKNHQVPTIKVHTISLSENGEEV

[3] = target: T2, α1AAR (Homo sapiens, UniProt P35348); assay: [3H]prazosin radioligand binding, Sf9 membranes
T2 sequence (P35348 1-370): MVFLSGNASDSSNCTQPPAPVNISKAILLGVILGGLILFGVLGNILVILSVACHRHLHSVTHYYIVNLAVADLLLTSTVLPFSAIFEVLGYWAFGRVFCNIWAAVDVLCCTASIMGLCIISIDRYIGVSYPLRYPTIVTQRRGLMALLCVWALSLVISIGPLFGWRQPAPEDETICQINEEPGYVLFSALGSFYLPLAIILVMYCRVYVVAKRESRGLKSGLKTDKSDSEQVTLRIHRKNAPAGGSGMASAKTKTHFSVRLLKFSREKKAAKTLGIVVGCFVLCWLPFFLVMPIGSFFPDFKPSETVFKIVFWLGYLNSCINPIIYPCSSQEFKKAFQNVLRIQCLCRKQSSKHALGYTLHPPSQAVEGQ

[4] = target: T3, α1DAR (Homo sapiens, UniProt P25100); assay: [3H]prazosin radioligand competition binding, Sf9 membranes; settings: 1 h
T3 construct: made in house; host or cells: Sf9 insect cells (membranes)
T3 sequence (P25100 1-572): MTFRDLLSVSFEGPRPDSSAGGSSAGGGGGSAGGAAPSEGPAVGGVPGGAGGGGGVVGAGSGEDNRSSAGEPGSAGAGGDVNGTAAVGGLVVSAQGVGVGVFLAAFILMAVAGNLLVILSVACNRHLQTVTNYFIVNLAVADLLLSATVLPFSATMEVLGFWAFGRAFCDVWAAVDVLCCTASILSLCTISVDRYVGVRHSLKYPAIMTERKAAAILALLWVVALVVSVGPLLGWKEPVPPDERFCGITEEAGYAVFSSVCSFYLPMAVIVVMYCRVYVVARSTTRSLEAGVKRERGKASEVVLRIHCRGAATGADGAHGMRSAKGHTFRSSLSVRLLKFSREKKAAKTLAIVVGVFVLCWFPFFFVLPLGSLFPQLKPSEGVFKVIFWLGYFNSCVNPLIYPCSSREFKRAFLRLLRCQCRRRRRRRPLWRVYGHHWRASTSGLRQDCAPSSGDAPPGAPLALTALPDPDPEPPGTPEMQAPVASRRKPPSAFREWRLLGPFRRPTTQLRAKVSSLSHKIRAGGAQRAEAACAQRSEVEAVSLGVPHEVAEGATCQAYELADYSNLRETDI

[5] = system: α1ARs over α2ARs; settings: cited from earlier work
[6] = target: T4, purified α1AAR fused at the C-terminus to an enhanced green fluorescent protein (Homo sapiens, UniProt P35348, N7Q | N13Q | N22Q); assay: flow cytometry on cells; on-yeast titration as a1, in the presence of 500 μM oxymetazoline; settings: one partner purified
T4 construct: α1A-adrenergic receptor, human; Used in the on-yeast titration with or without 500 μM ligand (oxymetazoline, noradrenaline, tamsulosin, phentolamine); not shown: EGFP, C-terminal, kept

[7] = target: T4, purified α1AAR fused at the C-terminus …; assay: flow cytometry on cells; on-yeast titration as a1, in the presence of 500 μM noradrenaline; settings: one partner purified

Molecule: Cc1cc(C(C)(C)C)c(O)c(C)c1CC1=NCCN1 [Oxymetazoline, oxymetazoline]
cAMP Glo-sensor signal (Noradrenaline %) ([1]; Oxy Log[M] -4, listed as Oxy): 20.5576% and 21.072% and 20.3482%
cAMP Glo-sensor signal (Noradrenaline %) ([1]; Oxy Log[M] -5, listed as Oxy): 16.9742% and 18.9752% and 17.0682%
cAMP Glo-sensor signal (Noradrenaline %) ([1]; Oxy Log[M] -6, listed as Oxy): 11.7764% and 12.3973% and 9.944%
cAMP Glo-sensor signal (Noradrenaline %) ([1]; Oxy Log[M] -7, listed as Oxy): 5.984% and 4.961% and 5.326%
cAMP Glo-sensor signal (Noradrenaline %) ([1]; Oxy Log[M] -8, listed as Oxy): 5.537% and 5.0478% and 4.209%
cAMP Glo-sensor signal (Noradrenaline %) ([1]; Oxy Log[M] -9, listed as Oxy): 5.27% and 4.932% and 5.142%
cAMP Glo-sensor signal (Noradrenaline %) ([1]; Oxy Log[M] -10, listed as Oxy): 5.3547% and 4.562% and 4.147%
cAMP Glo-sensor signal (Noradrenaline %) ([1]; Oxy Log[M] -11, listed as Oxy): 5.371% and 4.924% and 4.109%
activation at 100 µM ([2]; read-out: α1AAR activation (Noradrenaline %), Oxy Log[M] -4): 79.5%
activation at 10 µM ([2]; read-out: α1AAR activation (Noradrenaline %), Oxy Log[M] -5): 82.8%
activation at 1 µM ([2]; read-out: α1AAR activation (Noradrenaline %), Oxy Log[M] -6): 89.5%
activation at 0.1 µM ([2]; read-out: α1AAR activation (Noradrenaline %), Oxy Log[M] -7): 76.5%
activation at 0.01 µM ([2]; read-out: α1AAR activation (Noradrenaline %), Oxy Log[M] -8): 64.3%
activation at 0.001 µM ([2]; read-out: α1AAR activation (Noradrenaline %), Oxy Log[M] -9): 30.7%
[3H]prazosin binding ([3]; Fig 1c, oxymetazoline Log[M] -4): 10.9281% and 8.737% and 2.765%
[3H]prazosin binding ([3]; Fig 1c, oxymetazoline Log[M] -5): 28.5329% and 15.8053% and 21.6214%
[3H]prazosin binding ([3]; Fig 1c, oxymetazoline Log[M] -6): 48.3547% and 40.7911% and 47.5462%
[3H]prazosin binding ([3]; Fig 1c, oxymetazoline Log[M] -7): 71.541% and 85.4423% and 88.1547%
[3H]prazosin binding ([3]; Fig 1c, oxymetazoline Log[M] -8): 80.5129% and 95.3793% and 78.3743%
[3H]prazosin binding ([3]; Fig 1c, oxymetazoline Log[M] -9): 85.0772% and 90.4238% and 92.4582%
[3H]prazosin binding ([3]; Fig 1c, oxymetazoline Log[M] -10): 89.85% and 99.1089% and 88.2591%
[3H]prazosin binding ([3]; SupFig 3a, oxymetazoline Log[M] -4): 12.1047% and 12.5905% and 4.0484%
[3H]prazosin binding ([3]; SupFig 3a, oxymetazoline Log[M] -5): 17.0033% and 16.477% and 26.9623%
[3H]prazosin binding ([3]; SupFig 3a, oxymetazoline Log[M] -6): 53.0745% and 43.3179% and 35.5045%
[3H]prazosin binding ([3]; SupFig 3a, oxymetazoline Log[M] -7): 77.4054% and 89.6316% and 82.5874%
[3H]prazosin binding ([3]; SupFig 3a, oxymetazoline Log[M] -8): 97.364% and 96.109% and 85.3403%
[3H]prazosin binding ([3]; SupFig 3a, oxymetazoline Log[M] -9): 100.805% and 102.506% and 100.765%
[3H]prazosin binding ([3]; SupFig 3a, oxymetazoline Log[M] -10): 92.5464% and 102.06% and 94.2468%
[3H]prazosin binding ([3]; SupFig 3a, oxymetazoline Log[M] -11): 99.0644% and 106.675% and 101.331%
[3H]prazosin binding ([3]; SupFig 5b, Oxy Log[M] -4, listed as Oxy): 3.711% and 5.398% and 5.024%
[3H]prazosin binding ([3]; SupFig 5b, Oxy Log[M] -5, listed as Oxy): 10.3036% and 9.182% and 6.784%
[3H]prazosin binding ([3]; SupFig 5b, Oxy Log[M] -6, listed as Oxy): 25.9506% and 41.5063% and 33.8379%
[3H]prazosin binding ([3]; SupFig 5b, Oxy Log[M] -7, listed as Oxy): 92.3589% and 77.9429% and 95.5776%
[3H]prazosin binding ([3]; SupFig 5b, Oxy Log[M] -8, listed as Oxy): 101.851% and 78.107% and 77.5873%
[3H]prazosin binding ([3]; SupFig 5b, Oxy Log[M] -9, listed as Oxy): 102.225% and 74.633% and 114.735%
[3H]prazosin binding ([3]; SupFig 5b, Oxy Log[M] -10, listed as Oxy): 96.3983% and 104.267% and 110.313%
[3H]prazosin binding ([3]; SupFig 5b, Oxy Log[M] -11, listed as Oxy): 110.176% and 107.431% and 115.738%
[3H]prazosin binding ([3]; oxymetazoline Log[M] -4, + 5 μM Nb29): 2.395% and 8.488% and 7.551%
[3H]prazosin binding ([3]; oxymetazoline Log[M] -5, + 5 μM Nb29): 13.6695% and 16.4815% and 14.4506%
[3H]prazosin binding ([3]; oxymetazoline Log[M] -6, + 5 μM Nb29): 33.0932% and 34.9679% and 29.0314%
[3H]prazosin binding ([3]; oxymetazoline Log[M] -7, + 5 μM Nb29): 67.0717% and 63.0359% and 61.005%
[3H]prazosin binding ([3]; oxymetazoline Log[M] -8, + 5 μM Nb29): 88.2659% and 86.6777% and 81.6265%
[3H]prazosin binding ([3]; oxymetazoline Log[M] -9, + 5 μM Nb29): 85.0373% and 101.154% and 98.9412%
[3H]prazosin binding ([3]; oxymetazoline Log[M] -10, + 5 μM Nb29): 98.863% and 104.175% and 100.087%
remaining binding at 100 µM ([4]; oxymetazoline Log[M] -4): 40%
remaining binding at 10 µM ([4]; oxymetazoline Log[M] -5): 78%
remaining binding at 1 µM ([4]; oxymetazoline Log[M] -6): 104%
remaining binding at 0.01 µM ([4]; oxymetazoline Log[M] -8): 101%
remaining binding at 0.001 µM ([4]; oxymetazoline Log[M] -9): 85.5%
remaining binding at 0.0001 µM ([4]; oxymetazoline Log[M] -10): 96.6%

Molecule: (+)-cyclazosin
selectivity for α1ARs over α2ARs [5]: 100–1000 fold
subtype preference among α1ARs [5]: slight preference for α1BAR over α1AAR

Kd [6]: 37.6 nM
Kd [7]: 38.8 nM
B1: Nb29 displayed on yeast cells (VHH)
VHH: QVQLQESGGGLVQAGGSLRLSCAASGNISAHWKMGWYRQAPGKEREFVAGIGYANTNYADSVKGRFTISRDNAKNTVYLQMNSLKPEDTAVYYCAAYSYYRDHSYWGQGTQVTVSS
notes: Expression was detected with an anti-HA antibody; also called Nb29-expressing yeast cells

From paper PMC10282093, “Structural basis of α1A-adrenergic receptor activation and recognition by an extracellular nanobody” (Nature Communications, 2023)
